Results published in US20250099448A1, “HETEROCYCLIC COMPOUNDS” (Hoffmann-La Roche Inc., priority 2022, published 2025).

Molecular target: T1, MAGL protein (Homo sapiens, UniProt Q99685)
T1 sequence (Q99685 1-303): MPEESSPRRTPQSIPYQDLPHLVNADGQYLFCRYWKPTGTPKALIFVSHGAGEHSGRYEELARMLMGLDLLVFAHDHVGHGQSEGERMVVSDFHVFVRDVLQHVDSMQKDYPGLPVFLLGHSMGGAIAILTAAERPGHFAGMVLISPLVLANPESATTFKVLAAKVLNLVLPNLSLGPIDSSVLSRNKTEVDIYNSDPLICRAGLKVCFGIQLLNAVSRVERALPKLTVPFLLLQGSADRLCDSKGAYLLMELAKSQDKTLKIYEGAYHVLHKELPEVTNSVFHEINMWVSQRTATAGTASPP
Experiment: 2-AG assay: MAGL inhibitory activity by hydrolysis of 2-arachidonoylglycerol to arachidonic acid, followed by mass spectrometry
Assay type: biochemical
Conditions: 8 μM 2-arachidonoylglycerol, 15 min preincubation, 30 min reaction at RT, RapidFire MS readout
Procedure, shortened: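 MAGL was preincubated 15 min at RT with compound (12.5 to […], 3-fold steps) in 50 mM TRIS, 1 mM EDTA, 0.01% Tween-20, 2.5% DMSO. The reaction ran 30 min at RT with 8 μM 2-AG. Arachidonic acid was quantified by RapidFire SPE-MS/MS against a d8-arachidonic acid internal standard.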

Compound | IC50
O=C(N1CC(C23CC(c4ccc(F)cc4)(C2)C3)C1)N1CC2(CC(c3nc(C4CC4)n[nH]3)C2)C1 [compound 773] | 1.31 nM
O=C(N1CCC(NS(=O)(=O)c2ccc(F)cc2)CC1)N1CC2(CC(c3nnc(C4CC4)[nH]3)C2)C1 [compound 249] | 1300 nM
O=C(N1CC(Oc2ccc(C(F)(F)F)nn2)C1)N1CC2(CC(c3nnc(C4CC4)[nH]3)C2)C1 [compound 314] | 4.76 nM
O=C(N1CC2(CC(Cc3ccc4[nH]ncc4n3)C2)C1)N1CC2(CC(c3nc(C4CC4)n[nH]3)C2)C1 [compound 684] | 4.33 nM
O=C(N1CC(C23CC(C(F)(F)c4ccc(C(F)(F)F)cc4)(C2)C3)C1)N1CC2(CC(c3nc(C4CC4)n[nH]3)C2)C1 [compound 798] | 2.4 nM
O=C(N1CC(CNS(=O)(=O)c2ccc(C(F)(F)F)cc2)C1)N1CC2(CC(c3nnc(C4CC4)[nH]3)C2)C1 [compound 209] | 316 nM
